Reference: ChEMBL document CHEMBL3797024, “Exploring new chemical functionalities to improve aromatase inhibition of steroids” (Bioorg Med Chem, 2016)

What was measured:
Aromatase [1] = target: T1, Aromatase (Homo sapiens, UniProt P11511); test: Inhibition of aromatase in human placental microsomes using [1beta-3H]-androstenedione as substrate assessed as tritiated H2O release at 0.5 uM after 15 mins by liquid scintillation counting method relative to control; parameters: species or system Placenta; details: 0.25 h
T1 sequence (P11511 whole entry): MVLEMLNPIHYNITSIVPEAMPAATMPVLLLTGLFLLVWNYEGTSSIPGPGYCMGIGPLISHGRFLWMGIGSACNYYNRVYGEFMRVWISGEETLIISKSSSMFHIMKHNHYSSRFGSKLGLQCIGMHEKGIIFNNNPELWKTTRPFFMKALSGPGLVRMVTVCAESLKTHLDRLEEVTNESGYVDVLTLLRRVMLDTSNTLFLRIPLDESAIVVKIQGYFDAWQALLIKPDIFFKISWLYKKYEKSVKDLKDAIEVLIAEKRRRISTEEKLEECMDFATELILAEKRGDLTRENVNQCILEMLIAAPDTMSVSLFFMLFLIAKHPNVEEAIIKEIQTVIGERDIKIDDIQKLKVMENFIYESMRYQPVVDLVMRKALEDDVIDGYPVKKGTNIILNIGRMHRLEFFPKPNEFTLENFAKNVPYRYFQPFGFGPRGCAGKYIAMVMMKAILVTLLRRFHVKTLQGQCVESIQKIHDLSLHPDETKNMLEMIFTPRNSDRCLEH

Aromatase [2] = target: T1, Aromatase; test: Inhibition of human placental aromatase expressed in human MCF7 cells using [1beta-3H]-androstenedione as substrate at 1 uM after 1 hr by liquid scintillation counting method in presence of progesterone relative to control; assay type: cell-based
Aromatase [3] = target: T1, Aromatase; test: Inhibition of human placental aromatase expressed in human MCF7 cells using [1beta-3H]-androstenedione as substrate assessed as tritiated H2O release at 10 uM after 1 hr by liquid scintillation counting method in presence of progesterone relative to control; assay type: cell-based
Aromatase [4] = target: T1, Aromatase; test: Inhibition of aromatase in human placental microsomes using [1beta-3H]-androstenedione as substrate assessed as tritiated H2O release at 2 uM after 15 mins by liquid scintillation counting method relative to control; parameters: species or system Placenta; details: 0.25 h
Aromatase [5] = target: T1, Aromatase; test: Inhibition of aromatase in human placental microsomes using [1beta-3H]-androstenedione as substrate assessed as tritiated H2O release after 15 mins by liquid scintillation counting method; parameters: species or system Placenta

## C[C@]12CCC(=O)C(O)=C1CC[C@@H]1[C@@H]2CC[C@]2(C)C(=O)CC[C@@H]12 [FORMESTANE]
Aromatase [1]
  inhibition at 0.5 µM: 99.2%
Aromatase [2]
  inhibition at 1 µM: 96.1%

## C[C@]12CC[C@H]3[C@@H](CC[C@@]45O[C@@H]4CCC[C@]35C)[C@@H]1CCC2=O
Aromatase [3]
  inhibition at 10 µM: 53.2%

## C[C@]12CCC3=C(OCCO3)C1=CC[C@@H]1[C@@H]2CC[C@]2(C)C(=O)CC[C@@H]12
Aromatase [4]
  inhibition at 2 µM: 55.9%

## C=CC[C@@H]1CC2=CC(=O)C=C[C@]2(C)[C@H]2CC[C@]3(C)C(=O)CC[C@H]3[C@H]12
Aromatase [4]
  inhibition at 2 µM: 94.5%
Aromatase [3]
  inhibition at 10 µM: 94.2%

## C[C@]12CC[C@H]3C[C@H]3[C@@H]1CC[C@@H]1[C@@H]2CC[C@]2(C)C(=O)CC[C@@H]12
Aromatase [4]
  inhibition at 2 µM: 95.3%
Aromatase [5]
  IC50: 110 nM
Aromatase [3]
  inhibition at 10 µM: 89.3%

## C[C@]12CCC=C[C@@H]1CC[C@@H]1[C@@H]2CC[C@]2(C)C(=O)CC[C@@H]12
Aromatase [3]
  inhibition at 10 µM: 56.9%

## C[C@]12CC[C@H]3[C@@H](CC[C@]45O[C@H]4CCC[C@]35C)[C@@H]1CCC2=O
Aromatase [4]
  inhibition at 2 µM: 85.5%
Aromatase [5]
  IC50: 530 nM
Aromatase [3]
  inhibition at 10 µM: 64.8%

## C[C@]12CCC(=O)C=C1CC[C@@H]1C2=CC[C@]2(C)C(=O)CC[C@@H]12
Aromatase [4]
  inhibition at 2 µM: 95.2%
Aromatase [3]
  inhibition at 10 µM: 96.4%

## C[C@]12CCCC=C1CC[C@@H]1[C@@H]2CC[C@]2(C)C(=O)CC[C@@H]12
Aromatase [3]
  inhibition at 10 µM: 62.6%

## C[C@]12C=CC(=O)C=C1C[C@@H](CC1CO1)[C@@H]1[C@@H]2CC[C@]2(C)C(=O)CC[C@@H]12 (some centres undefined)
Aromatase [4]
  inhibition at 2 µM: 76.3%
Aromatase [3]
  inhibition at 10 µM: 72.3%

## C[C@]12CC[C@H]3O[C@H]3[C@@H]1CC[C@@H]1[C@@H]2CC[C@]2(C)C(=O)CC[C@@H]12
Aromatase [3]
  inhibition at 10 µM: 80.4%
